Source: US12577206B2 (BRISTOL-MYERS SQUIBB COMPANY, priority 2020, dated 2026)

Experiments:
human FPR2 = biological target: T1, human FPR2 (Homo sapiens, UniProt P25090); assay: FPR2 cyclic adenosine monophosphate (cAMP) assay; format: cell-based; conditions: CHO cells overexpressing human FPR2; forskolin 5 μM; inhibition of cAMP production; HTRF; read-out: hFPR2 cAMP2 EC50
T1 sequence (P25090 1-351): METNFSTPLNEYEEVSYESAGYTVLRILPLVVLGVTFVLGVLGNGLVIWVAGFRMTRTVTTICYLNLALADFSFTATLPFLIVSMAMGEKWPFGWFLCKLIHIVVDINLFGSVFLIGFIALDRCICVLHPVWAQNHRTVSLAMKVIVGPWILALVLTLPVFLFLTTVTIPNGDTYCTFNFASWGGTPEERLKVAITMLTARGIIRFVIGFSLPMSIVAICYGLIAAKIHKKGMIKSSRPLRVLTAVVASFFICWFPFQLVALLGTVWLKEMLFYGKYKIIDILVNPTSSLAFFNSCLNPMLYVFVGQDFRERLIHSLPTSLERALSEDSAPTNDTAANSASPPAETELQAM
Summary of the method: (§1)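 CHO cells overexpressing human FPR1 (4,000/well) or FPR2 (2,000/well) were incubated 30 min at room temperature with compound (0.020 nM to 100 μM, 1% DMSO), IBMX 200 μM, and forskolin at 10 μM (FPR1) or 5 μM (FPR2), all final. HTRF cAMP read-out; inhibition fitted by 4-parameter logistic equation.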

human FPR1 = biological target: T2, human FPR1 (Homo sapiens, UniProt P21462); assay: FPR1 cyclic adenosine monophosphate (cAMP) assay; format: cell-based; conditions: CHO cells overexpressing human FPR1; forskolin 10 μM; inhibition of cAMP production; HTRF; read-out: hFPR1 cAMP2 EC50
T2 sequence (P21462 1-350): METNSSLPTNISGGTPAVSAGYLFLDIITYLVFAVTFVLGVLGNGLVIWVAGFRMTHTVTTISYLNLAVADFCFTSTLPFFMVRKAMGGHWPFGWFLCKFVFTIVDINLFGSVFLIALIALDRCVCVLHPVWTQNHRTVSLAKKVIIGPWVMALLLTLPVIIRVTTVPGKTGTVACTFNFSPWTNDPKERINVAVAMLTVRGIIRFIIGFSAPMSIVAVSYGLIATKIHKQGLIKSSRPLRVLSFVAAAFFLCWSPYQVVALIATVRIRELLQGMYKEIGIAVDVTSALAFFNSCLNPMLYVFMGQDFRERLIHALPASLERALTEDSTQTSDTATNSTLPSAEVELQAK
Summary of the method: as §1

| SMILES | EC50 (human FPR2) [µM] | EC50 (human FPR1) [µM] |
| --- | --- | --- |
| COc1ccc(-c2c(NC(=O)c3ccc(OC(F)F)cc3)c(=O)n(-c3ncccc3C(F)(F)F)n2C)cc1Cl [Example 221, N-(5-(3-chloro-4-methoxyphenyl)-1-methyl-3-oxo-2-(3-(trifluoromethyl)pyridin-2-yl)-2,3-dihydro-1H-pyrazol-4-yl)-4-(difluoromethoxy)benzamide] | 0.141 | > 5 |
| Cn1ncc2cc(-c3c(NC(=O)c4ccc(OC(F)F)cc4)c(=O)n(-c4ncccc4C(F)(F)F)n3C)ccc21 [Example 223, 4-(difluoromethoxy)-N-(1-methyl-5-(1-methyl-1H-indazol-5-yl)-3-oxo-2-(3-(trifluoromethyl)pyridin-2-yl)-2,3-dihydro-1H-pyrazol-4-yl)benzamide] | 0.166 | > 5 |
| COc1cc(F)c(-c2c(NC(=O)c3ccc(OC(F)F)cc3)c(=O)n(-c3nccc(N4CCN(C)CC4)c3C(F)(F)F)n2C)c(F)c1 [Example 224, N-[5-(2,6-difluoro-4-methoxyphenyl)-1-methyl-2-[4-(4-methylpiperazin-1-yl)-3-(trifluoromethyl)pyridin-2-yl]-3-oxo-2,3-dihydro-1H-pyrazol-4-yl]-4-(difluoromethoxy)benzamide] | 0.015 | > 5 |
| COc1cc(F)c(-c2c(NC(=O)c3ccc(OC(F)F)cc3)c(=O)n(-c3nc(NCC(N)=O)ccc3C(F)(F)F)n2C)c(F)c1 [Example 226, N-(2-{6-[(carbamoylmethyl)amino]-3-(trifluoromethyl)pyridin-2-yl}-5-(2,6-difluoro-4-methoxyphenyl)-1-methyl-3-oxo-2,3-dihydro-1H-pyrazol-4-yl)-4-(difluoromethoxy)benzamide] | 0.013 | > 10 |

These reach a lower EC50 (human FPR2). Values come first.

| EC50 (human FPR2) [µM] | EC50 (human FPR1) [µM] | SMILES |
| --- | --- | --- |
| 0.005 | > 10 | COc1cc(F)c(-c2c(NC(=O)c3ccc(OC(F)F)cc3)c(=O)n(-c3nc(Cl)ccc3C(F)(F)F)n2C)c(F)c1 [Example 222, N-{2-[6-chloro-3-(trifluoromethyl)pyridin-2-yl]-5-(2,6-difluoro-4-methoxyphenyl)-1-methyl-3-oxo-2,3-dihydro-1H-pyrazol-4-yl}-4-(difluoromethoxy)benzamide] |
| 0.003 | > 10 | COc1cc(F)c(-c2c(NC(=O)c3ccc(OC(F)F)cc3)c(=O)n(-c3nc(NCCO)ccc3C(F)(F)F)n2C)c(F)c1 [Example 225, N-[5-(2,6-difluoro-4-methoxyphenyl)-2-{6-[(2-hydroxyethyl)amino]-3-(trifluoromethyl)pyridin-2-yl}-1-methyl-3-oxo-2,3-dihydro-1H-pyrazol-4-yl]-4-(difluoromethoxy)benzamide] |
| 0.003 | > 5 | CNc1ccc(C(F)(F)F)c(-n2c(=O)c(NC(=O)c3ccc(OC(F)F)cc3)c(-c3c(F)cc(OC)cc3F)n2C)n1 [Example 227, N-[5-(2,6-difluoro-4-methoxyphenyl)-1-methyl-2-[6-(methylamino)-3-(trifluoromethyl)pyridin-2-yl]-3-oxo-2,3-dihydro-1H-pyrazol-4-yl]-4-(difluoromethoxy)benzamide] |
| 0.002 | 0.56 | COc1cc(F)c(-c2c(NC(=O)c3ccc(OC(F)F)cc3)c(=O)n(-c3nc(N4CCN(C)C(=O)C4)ccc3C(F)(F)F)n2C)c(F)c1 [Example 220, N-[5-(2,6-difluoro-4-methoxyphenyl)-1-methyl-2-[6-(4-methyl-3-oxopiperazin-1-yl)-3-(trifluoromethyl)pyridin-2-yl]-3-oxo-2,3-dihydro-1H-pyrazol-4-yl]-4-(difluoromethoxy)benzamide] |
| 0.001 | > 5 | COc1cc(F)c(-c2c(NC(=O)c3ccc(OC(F)F)cc3)c(=O)n(-c3nc(Nc4cn(C)nc4C)ccc3C(F)(F)F)n2C)c(F)c1 [Example 228, N-[5-(2,6-difluoro-4-methoxyphenyl)-2-{6-[(1,3-dimethyl-1H-pyrazol-4-yl)amino]-3-(trifluoromethyl)pyridin-2-yl}-1-methyl-3-oxo-2,3-dihydro-1H-pyrazol-4-yl]-4-(difluoromethoxy)benzamide] |
